Data published in PMC3289994 (Archives of Biochemistry and Biophysics, 2012).

Key:
[1] = target: T1, StARD1 protein binding domain (residues 63–285) (Homo sapiens, UniProt P49675); experiment: FastStep SPR equilibrium binding of carotenoids to immobilized StARD1
T1 sequence (P49675 63-285): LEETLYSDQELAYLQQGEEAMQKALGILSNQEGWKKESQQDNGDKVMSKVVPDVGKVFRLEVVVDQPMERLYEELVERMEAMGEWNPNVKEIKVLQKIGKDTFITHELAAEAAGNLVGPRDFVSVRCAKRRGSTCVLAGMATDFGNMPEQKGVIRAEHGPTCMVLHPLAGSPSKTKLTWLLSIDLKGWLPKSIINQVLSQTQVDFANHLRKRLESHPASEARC

β-lactoglobulin (LG) = target: T2, β-lactoglobulin (LG) (Bos taurus, UniProt P02754); experiment: SPR equilibrium binding of carotenoids to immobilized LG
T2 sequence (P02754 17-178): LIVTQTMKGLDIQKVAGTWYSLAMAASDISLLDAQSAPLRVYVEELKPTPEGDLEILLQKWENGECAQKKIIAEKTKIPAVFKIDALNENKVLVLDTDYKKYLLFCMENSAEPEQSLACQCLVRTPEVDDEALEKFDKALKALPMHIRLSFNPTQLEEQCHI

[2] = target: human serum albumin (HSA) (Homo sapiens, UniProt P02768); experiment: SPR equilibrium binding of carotenoids to immobilized HSA
human serum albumin (HSA), sequence (P02768 25-609): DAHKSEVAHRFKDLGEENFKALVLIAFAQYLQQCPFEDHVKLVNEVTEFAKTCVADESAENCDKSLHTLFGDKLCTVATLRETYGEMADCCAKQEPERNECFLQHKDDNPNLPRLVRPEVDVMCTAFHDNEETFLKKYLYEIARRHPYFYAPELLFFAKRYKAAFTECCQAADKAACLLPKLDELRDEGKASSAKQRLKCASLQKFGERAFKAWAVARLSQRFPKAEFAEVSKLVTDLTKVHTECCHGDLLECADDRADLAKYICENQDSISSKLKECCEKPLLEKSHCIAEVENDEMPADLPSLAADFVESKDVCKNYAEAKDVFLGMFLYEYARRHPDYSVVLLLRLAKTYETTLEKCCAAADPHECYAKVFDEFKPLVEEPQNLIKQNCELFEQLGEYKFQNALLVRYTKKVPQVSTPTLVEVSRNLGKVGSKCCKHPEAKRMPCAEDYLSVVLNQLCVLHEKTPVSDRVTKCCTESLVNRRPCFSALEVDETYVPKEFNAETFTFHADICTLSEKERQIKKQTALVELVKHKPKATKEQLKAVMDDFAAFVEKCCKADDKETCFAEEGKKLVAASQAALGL

| Compound | Kd [1] [nM] | Kd (β-lactoglobulin (LG)) [nM] | Kd [2] [nM] |
| --- | --- | --- | --- |
| CC1=C(/C=C/C(C)=C/C=C/C(C)=C/C=C/C=C(C)/C=C/C=C(C)/C=C/C2=C(C)CCCC2(C)C)C(C)(C)CCC1 [β-Carotene] | 1790 ± 80 | 2400 ± 50 | 1530 ± 20 |
| CC1=C[C@H](O)CC(C)(C)[C@H]1/C=C/C(C)=C/C=C/C(C)=C/C=C/C=C(C)/C=C/C=C(C)/C=C/C1=C(C)C[C@@H](O)CC1(C)C [Lutein, (3R, 3′R, 6′R)-lutein] | 1150 ± 60 | 2480 ± 80 | 1160 ± 40 |
| CC1=C(/C=C/C(C)=C/C=C/C(C)=C/C=C/C=C(C)/C=C/C=C(C)/C=C/C2=C(C)C(=O)[C@@H](O)CC2(C)C)C(C)(C)C[C@H](O)C1=O [Astaxanthin, (3S, 3′S)-astaxanthin] | 1960 ± 90 | 1900 ± 50 | 1560 ± 30 |
| CC1=C(/C=C/C(C)=C/C=C/C(C)=C/C=C/C=C(C)/C=C/C=C(C)/C=C/C2=C(C)C[C@@H](O)CC2(C)C)C(C)(C)C[C@H](O)C1 [Zeaxanthin, (3R, 3′R)-zeaxanthin] | 1320 ± 90 | 2300 ± 20 | 1600 ± 50 |
